The conditions of data set [1]: for Normal melting temperature: DTA.
Data set [2] in a line: Molar enthalpy of transition or fusion. Particulars: DSC.

Numbers after ± are expanded uncertainties.

As for `Cc1ccc(C)c(OCCCC(C)(C)C(=O)O)c1` [gemfibrozil], the Normal melting temperature in data set [1] (Crystal) came to 59.00 ± 0.4 °C; in data set [1] (Metastable crystal), 58.00 ± 0.4 °C. Moreover, in data set [1] (Glass, DSC), the Glass transition temperature is -32.00 ± 1 °C. Moreover, the “Molar enthalpy of transition or fusion” value in data set [2] (Crystal) came to 28.3 ± 1.9 kJ/mol; in data set [2] (Metastable crystal), 25.9 ± 2.1 kJ/mol.

(Values after the NIST ThermoML archive (doi:10.1016/j.tca.2019.03.026).)
